Experiments:
[1] = molecular target: T1, Aβ 1-42 (Homo sapiens, UniProt P05067); assay: Fluorometric H2O2 assay (inhibition of Abeta H2O2 production); format: biochemical; conditions: concentration required to inhibit 50% of Abeta H2O2 production; read-out: H2O2 IC50
T1 construct: The reaction solutions contained Aβ 1-42 at concentrations
Procedure, shortened: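 Copper-dependent Aβ H2O2 production measured fluorometrically with deacetylated dichlorofluorescein plus HRP in PBS, pH 7.4. Incubation 60 min at 37 C, test compound included in wells. H2O2 quantified against H2O2 standards.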

[2] = tested on: M17 human neuroblastoma cells; assay: Cytotoxicity, M17 human neuroblastoma cells; format: cell-based; conditions: for Cytotox (% viable) M17 cells at 1 μM: 1 μM test compound; for Cytotox (% viable) M17 cells at 10 μM: 10 μM test compound
Procedure: Assay 3. MTS Assay for Cell Viability
Cell viability is determined using the MTS assay. Culture medium is replaced with fresh neurobasal medium plus B27 supplements minus antioxidants. 1/10th volume MTS solution (Cell Titre 96 Aqueous One, Promega Corporation) and incubated at 37° C., 2 hrs. 200 microliter aliquots are measured with a spectrophotometer at 560 nm.

[3] = tested on: dityrosine oligomerization; assay: CuTy: inhibition of dityrosine oligomerization; format: biochemical; conditions: referenced to in-house standard (set as 100% inhibition)
[4] = Mice plasma concentration after oral dose; format: in vivo; conditions: 30 min to 4 h after single or repeat oral dose of 30 mg/kg
[5] = Toxicity, visual observations in mice; conditions: 30 mg/kg; duration and visual observations

T1 sequence (P05067 672-713 limits assumed): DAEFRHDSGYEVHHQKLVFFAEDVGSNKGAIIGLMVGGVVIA

Structure (SMILES) | IC50 [1] | Cytotox (% viable) M17 cells at 1 μM [2] | Cytotox (% viable) M17 cells at 10 μM [2] | CuTy % inhibition of dityrosine oligomerization [3] | Mice plasma concentration [4] | Toxicity at 30 mg/kg [5]
O=c1c2c(Cl)cc(Cl)c(O)c2ncn1-c1ccccn1 [PB 1242] | 280 nM | 102.7% | 102.6% | CuTy: 50% inhibition | Up to 144.2 ng/ mL ng/mL | 10 days, none
Cn1ccnc1Cn1cnc2c(O)c(Cl)cc(Cl)c2c1=O [PB 1243] | 380 nM | 112% | 122.3% | CuTy: 60% inhibition | Up to 13214.8 ng/mL | 10 days, none
O=c1c2c(Cl)cc(Cl)c(O)c2ncn1C1=CCC=C1 [PB 1244] | 1320 nM | 125.7% | 114.8% | CuTy: 10% inhibition | Up to 1477.4 ng/mL | 10 days, none
O=c1c2c(Cl)cc(Cl)c(O)c2ncn1-c1ccc2[nH]ncc2c1 [PB 1246] | 310 nM | 104.3% | 73.5% | CuTy: 120% inhibition | Up to 126 ng/ mL ng/mL | 10 days, none
O=C(O)Cn1cnc2c(O)c(Cl)cc(Cl)c2c1=O [PB 1249] | 490 nM | 105% | 100.7% | CuTy: 100% inhibition | Up to 4830.2 ng/ml ng/mL | 10 days, none
Br.CN1CCCC1Cn1cnc2c(O)c(Cl)cc(Cl)c2c1=O (stereo not drawn) [PB 1253] | 430 nM | 106.6% | 93.9% | CuTy: 70% inhibition | Up to 382.5 ng/ mL ng/mL | 10 days, none
O=c1c2c(Cl)cc(Cl)c(O)c2ncn1Cc1nccs1 [PB 1254] | 250 nM | 106.6% | 106% | CuTy: 90% inhibition | Up tp 441.4 ng/ mL ng/mL | 10 days, none
O=c1c2c(Cl)cc(Cl)c(O)c2ncn1Cc1nc2ccccc2s1 [PB 1257] | 690 nM | 111.1% | 80.9% | CuTy: 60% inhibition | Up to 166.1 ng/ mL ng/mL | 10 days, none
O=c1c2c(Cl)cc(Cl)c(O)c2ncn1CCNCc1ccncc1 [PB 1264] | 450 nM | 103% | 104.8% | CuTy: 100% inhibition | Up to 1639.8 ng/mL | 10 days, none
CN(C)Cc1nc2c(O)c(Cl)cc(Cl)c2c(=O)n1CC1CC1.Cl [PB 1267] | 370 nM | 94.4% | 74.5% | CuTy: 110% inhibition | Up to 1166.6 ng/ml ng/mL | 10 days, none
CCn1c(CN(C)C)nc2c(O)c(Cl)cc(Cl)c2c1=O.Cl [PB 1268] | 360 nM | 99.2% | 102.1% | CuTy: 110% inhibition | Up to 975.9 ng/ml ng/mL | 10 days, none
Br.CN(C)Cc1nc2c(O)c(Cl)cc(Cl)c2c(=O)n1C [PB 1269] | 280 nM | 109.3% | 114.7% | CuTy: 110% inhibition | Up to 492.1 ng/ml ng/mL | 10 days, 1/4 mild signs

Reference: patent publication US9163018B2, “Method of treatment of age-related macular degeneration (AMD)” (Prana Biotechnology Limited, priority 2006, dated 2015)
